Source: ChEMBL document CHEMBL5055659, “Photosensitive and Photoswitchable TRPA1 Agonists Optically Control Pain through Channel Desensitization” (J Med Chem, 2021)
The source made the active and inactive calls. The calls are words filed in the database; no cut-off is given here.

What was measured:
[1] = target: T1, Transient receptor potential cation channel subfamily A member 1 (Homo sapiens, UniProt O75762); test: Inhibition of fluorescent probe A1CA binding to TRPA1 (unknown origin) expressed in CHO cells assessed as decrease in fluorescent intensity at 10 uM incubated for 2 mins by confocal fluorescence microscopy; assay type: cell-based
T1 sequence (O75762 whole entry): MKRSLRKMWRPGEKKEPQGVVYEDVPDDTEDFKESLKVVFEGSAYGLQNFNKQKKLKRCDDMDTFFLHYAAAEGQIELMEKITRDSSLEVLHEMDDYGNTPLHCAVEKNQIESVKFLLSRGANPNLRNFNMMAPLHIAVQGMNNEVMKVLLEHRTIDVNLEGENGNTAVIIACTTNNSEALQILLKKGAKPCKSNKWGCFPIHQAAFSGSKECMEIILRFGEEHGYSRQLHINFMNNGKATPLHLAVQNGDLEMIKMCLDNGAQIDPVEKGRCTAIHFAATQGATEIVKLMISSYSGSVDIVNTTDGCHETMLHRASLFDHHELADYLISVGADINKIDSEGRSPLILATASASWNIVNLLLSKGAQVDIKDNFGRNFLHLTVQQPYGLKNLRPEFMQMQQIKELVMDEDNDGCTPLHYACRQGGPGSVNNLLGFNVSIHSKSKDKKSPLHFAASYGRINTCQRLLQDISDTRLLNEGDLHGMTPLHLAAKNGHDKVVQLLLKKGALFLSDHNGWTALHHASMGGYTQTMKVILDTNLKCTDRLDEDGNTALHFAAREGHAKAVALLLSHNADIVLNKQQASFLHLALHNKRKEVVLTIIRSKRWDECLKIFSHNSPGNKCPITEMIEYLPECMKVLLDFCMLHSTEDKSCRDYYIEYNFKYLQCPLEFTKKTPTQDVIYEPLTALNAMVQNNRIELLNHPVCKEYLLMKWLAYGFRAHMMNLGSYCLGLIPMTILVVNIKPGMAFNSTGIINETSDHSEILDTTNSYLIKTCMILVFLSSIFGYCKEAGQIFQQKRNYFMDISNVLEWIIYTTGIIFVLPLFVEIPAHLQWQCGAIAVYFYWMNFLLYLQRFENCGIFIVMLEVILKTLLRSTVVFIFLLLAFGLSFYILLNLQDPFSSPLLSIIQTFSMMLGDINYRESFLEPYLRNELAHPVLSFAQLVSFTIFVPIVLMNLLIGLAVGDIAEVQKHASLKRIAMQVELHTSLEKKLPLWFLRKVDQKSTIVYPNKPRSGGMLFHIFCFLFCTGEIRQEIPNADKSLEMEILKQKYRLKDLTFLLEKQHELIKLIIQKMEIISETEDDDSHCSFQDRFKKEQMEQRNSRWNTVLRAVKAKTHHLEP

[2] = target: T1, Transient receptor potential cation channel subfamily A member 1; test: Agonist activity at TRPA1 expressed in CHO cells assessed as activation of channel current in presence of 330 - 380 nm UV irradiation by whole-cell patch clamp electrophysiology; assay type: cell-based
[3] = target: T1, Transient receptor potential cation channel subfamily A member 1; test: Agonist activity at TRPA1 expressed in CHO cells assessed as reversal of activated channel current in presence of 410 - 420 nm UV irradiation at 100 uM by whole-cell patch clamp electrophysiology; assay type: cell-based
[4] = Drug metabolism in cell external solution assessed as thermal isomerization by measuring half life at 50 uM at 25 degC by UV-vis spectroscopy; assay type: ADME
[5] = Drug metabolism in cyclohexane assessed as thermal isomerization by measuring half life at 50 uM at 25 degC by UV-vis spectroscopy; assay type: physicochemical
[6] = target: T1, Transient receptor potential cation channel subfamily A member 1; test: Agonist activity at human TRPA1 expressed in HEK293 cells assessed as induction of Ca2+ influx at 10 uM measured under dark by Fluo-8 based calcium imaging assay; assay type: cell-based
[7] = target: T1, Transient receptor potential cation channel subfamily A member 1; test: Agonist activity at human TRPA1 expressed in HEK293 cells assessed as induction of Ca2+ influx at 10 uM measured under 365 nm UV irradiation by Fluo-8 based calcium imaging assay; assay type: cell-based; details: filed as agonist
[8] = tested on: HEK293; test: Induction of Ca2+ influx in TRPA1 untransfected HEK293 cells at 10 uM measured under 365 nm UV irradiation by Fluo-8 based calcium imaging assay; assay type: functional, cell-based; details: Homo sapiens
[9] = Drug metabolism in bath solution assessed as photochemical switch by measuring cis-isoform at 50 uM measured after exposure to 365 nm UV irradiation by HPLC analysis; assay type: physicochemical
[10] = Drug metabolism in bath solution assessed as photochemical switch by measuring trans-isoform reversal at 50 uM measured after exposure to 415 nm UV irradiation by HPLC analysis; assay type: physicochemical
[11] = Photostability of the compound in bath solution by measuring reversible photo-isomerism measured after exposure to 365 to 530 nm UV irradiation by UV spectra; assay type: physicochemical
[12] = organism: Mus musculus; test: Antinociceptive activity against capsaicin-induced wild type C57BL/6J mouse left check pain model assessed as reduction in frequency of wiping within 10 mins at 1 mM smeared on left check followed by exposed to 365 nm UV light; assay type: functional, organism-based
[13] = target: T1, Transient receptor potential cation channel subfamily A member 1; test: Agonist activity at human TRPA1 expressed in HEK293 cells assessed as induction of Ca2+ influx at 300 uM measured under 365 nm UV irradiation by Fluo-8 based calcium imaging assay; assay type: cell-based; details: filed as agonist
[14] = organism: Mus musculus; test: Antinociceptive activity against capsaicin-induced wild type C57BL/6J mouse left check pain model assessed as reduction in frequency of wiping within 10 mins at 1 mM smeared on left check; assay type: functional, organism-based
[15] = organism: Mus musculus; test: Antinociceptive activity against capsaicin-induced […] knock-out C57BL/6J mouse left check pain model assessed as reduction in frequency of wiping within 10 mins at 1 mM smeared on left check followed by exposed to 365 nm UV light; assay type: functional, organism-based
[16] = target: T2, Transient receptor potential cation channel subfamily V member 3 (Homo sapiens) (UniProt Q8NET8); test: Effect on TRPV3 (unknown origin) transfected in CHO cells assessed as activation of channel current in presence of 365 nm UV irradiation by whole-cell patch clamp electrophysiology; assay type: cell-based
T2 sequence (whole entry): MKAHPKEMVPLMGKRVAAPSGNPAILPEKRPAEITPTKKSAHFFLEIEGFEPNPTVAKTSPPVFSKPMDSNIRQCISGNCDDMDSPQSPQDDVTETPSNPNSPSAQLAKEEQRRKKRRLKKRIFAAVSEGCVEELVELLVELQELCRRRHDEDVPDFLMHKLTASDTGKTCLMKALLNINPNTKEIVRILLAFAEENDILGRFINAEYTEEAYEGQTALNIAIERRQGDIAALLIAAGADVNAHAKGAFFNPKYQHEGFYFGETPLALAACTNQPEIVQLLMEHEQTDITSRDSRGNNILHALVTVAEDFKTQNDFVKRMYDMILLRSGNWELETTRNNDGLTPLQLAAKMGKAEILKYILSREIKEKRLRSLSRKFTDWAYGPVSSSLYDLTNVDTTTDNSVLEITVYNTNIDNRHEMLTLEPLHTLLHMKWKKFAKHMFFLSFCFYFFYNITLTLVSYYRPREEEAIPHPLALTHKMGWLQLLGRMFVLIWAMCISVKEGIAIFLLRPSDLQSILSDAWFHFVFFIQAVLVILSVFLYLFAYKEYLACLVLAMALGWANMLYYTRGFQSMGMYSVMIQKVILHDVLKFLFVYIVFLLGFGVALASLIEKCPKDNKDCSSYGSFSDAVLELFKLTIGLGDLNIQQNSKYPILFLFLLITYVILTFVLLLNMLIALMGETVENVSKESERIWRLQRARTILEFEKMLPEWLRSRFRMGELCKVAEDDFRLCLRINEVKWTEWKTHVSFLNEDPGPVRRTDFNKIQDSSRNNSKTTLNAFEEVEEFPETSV

[17] = target: Transient receptor potential cation channel subfamily V member 4 (Homo sapiens) (UniProt Q9HBA0); test: Effect on TRPV4 (unknown origin) transfected in CHO cells assessed as activation of channel current in presence of 365 nm UV irradiation by whole-cell patch clamp electrophysiology; assay type: cell-based
Sequence of Transient receptor potential cation channel subfamily V member 4 (Homo sapiens) (Q9HBA0 whole entry): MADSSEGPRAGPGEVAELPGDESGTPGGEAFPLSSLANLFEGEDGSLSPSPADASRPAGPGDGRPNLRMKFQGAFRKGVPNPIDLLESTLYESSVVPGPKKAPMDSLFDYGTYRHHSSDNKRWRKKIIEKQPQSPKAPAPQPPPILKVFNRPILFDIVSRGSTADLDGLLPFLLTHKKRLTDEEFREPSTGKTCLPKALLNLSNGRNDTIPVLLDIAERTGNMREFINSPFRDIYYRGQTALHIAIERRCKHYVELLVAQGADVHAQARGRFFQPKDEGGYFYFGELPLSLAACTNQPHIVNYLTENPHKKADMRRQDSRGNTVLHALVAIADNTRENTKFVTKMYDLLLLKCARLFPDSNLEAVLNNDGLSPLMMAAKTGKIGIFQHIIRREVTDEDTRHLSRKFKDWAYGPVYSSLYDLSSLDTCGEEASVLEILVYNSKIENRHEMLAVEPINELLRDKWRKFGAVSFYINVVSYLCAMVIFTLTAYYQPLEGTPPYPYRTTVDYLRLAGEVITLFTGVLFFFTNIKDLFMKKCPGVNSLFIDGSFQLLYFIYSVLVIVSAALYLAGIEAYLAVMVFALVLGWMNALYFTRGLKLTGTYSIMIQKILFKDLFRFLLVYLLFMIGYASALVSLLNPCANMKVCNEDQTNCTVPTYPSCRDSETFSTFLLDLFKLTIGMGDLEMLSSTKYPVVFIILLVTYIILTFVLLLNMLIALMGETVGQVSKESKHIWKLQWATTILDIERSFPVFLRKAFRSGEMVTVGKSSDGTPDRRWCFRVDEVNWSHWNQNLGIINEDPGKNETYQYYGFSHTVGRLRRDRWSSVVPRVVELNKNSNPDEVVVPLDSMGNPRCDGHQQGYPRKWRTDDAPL

[18] = target: Sodium channel protein type 4 subunit alpha (Homo sapiens) (UniProt P35499); test: Effect on Nav1.4 (unknown origin) transfected in CHO cells assessed as activation of channel current in presence of 365 nm UV irradiation by whole-cell patch clamp electrophysiology; assay type: cell-based
[19] = target: Sodium channel protein type 5 subunit alpha (Homo sapiens, UniProt Q14524); test: Effect on Nav1.5 (unknown origin) transfected in CHO cells assessed as activation of channel current in presence of 365 nm UV irradiation by whole-cell patch clamp electrophysiology; assay type: cell-based
Sequence of Sodium channel protein type 5 subunit alpha (Q14524 whole entry): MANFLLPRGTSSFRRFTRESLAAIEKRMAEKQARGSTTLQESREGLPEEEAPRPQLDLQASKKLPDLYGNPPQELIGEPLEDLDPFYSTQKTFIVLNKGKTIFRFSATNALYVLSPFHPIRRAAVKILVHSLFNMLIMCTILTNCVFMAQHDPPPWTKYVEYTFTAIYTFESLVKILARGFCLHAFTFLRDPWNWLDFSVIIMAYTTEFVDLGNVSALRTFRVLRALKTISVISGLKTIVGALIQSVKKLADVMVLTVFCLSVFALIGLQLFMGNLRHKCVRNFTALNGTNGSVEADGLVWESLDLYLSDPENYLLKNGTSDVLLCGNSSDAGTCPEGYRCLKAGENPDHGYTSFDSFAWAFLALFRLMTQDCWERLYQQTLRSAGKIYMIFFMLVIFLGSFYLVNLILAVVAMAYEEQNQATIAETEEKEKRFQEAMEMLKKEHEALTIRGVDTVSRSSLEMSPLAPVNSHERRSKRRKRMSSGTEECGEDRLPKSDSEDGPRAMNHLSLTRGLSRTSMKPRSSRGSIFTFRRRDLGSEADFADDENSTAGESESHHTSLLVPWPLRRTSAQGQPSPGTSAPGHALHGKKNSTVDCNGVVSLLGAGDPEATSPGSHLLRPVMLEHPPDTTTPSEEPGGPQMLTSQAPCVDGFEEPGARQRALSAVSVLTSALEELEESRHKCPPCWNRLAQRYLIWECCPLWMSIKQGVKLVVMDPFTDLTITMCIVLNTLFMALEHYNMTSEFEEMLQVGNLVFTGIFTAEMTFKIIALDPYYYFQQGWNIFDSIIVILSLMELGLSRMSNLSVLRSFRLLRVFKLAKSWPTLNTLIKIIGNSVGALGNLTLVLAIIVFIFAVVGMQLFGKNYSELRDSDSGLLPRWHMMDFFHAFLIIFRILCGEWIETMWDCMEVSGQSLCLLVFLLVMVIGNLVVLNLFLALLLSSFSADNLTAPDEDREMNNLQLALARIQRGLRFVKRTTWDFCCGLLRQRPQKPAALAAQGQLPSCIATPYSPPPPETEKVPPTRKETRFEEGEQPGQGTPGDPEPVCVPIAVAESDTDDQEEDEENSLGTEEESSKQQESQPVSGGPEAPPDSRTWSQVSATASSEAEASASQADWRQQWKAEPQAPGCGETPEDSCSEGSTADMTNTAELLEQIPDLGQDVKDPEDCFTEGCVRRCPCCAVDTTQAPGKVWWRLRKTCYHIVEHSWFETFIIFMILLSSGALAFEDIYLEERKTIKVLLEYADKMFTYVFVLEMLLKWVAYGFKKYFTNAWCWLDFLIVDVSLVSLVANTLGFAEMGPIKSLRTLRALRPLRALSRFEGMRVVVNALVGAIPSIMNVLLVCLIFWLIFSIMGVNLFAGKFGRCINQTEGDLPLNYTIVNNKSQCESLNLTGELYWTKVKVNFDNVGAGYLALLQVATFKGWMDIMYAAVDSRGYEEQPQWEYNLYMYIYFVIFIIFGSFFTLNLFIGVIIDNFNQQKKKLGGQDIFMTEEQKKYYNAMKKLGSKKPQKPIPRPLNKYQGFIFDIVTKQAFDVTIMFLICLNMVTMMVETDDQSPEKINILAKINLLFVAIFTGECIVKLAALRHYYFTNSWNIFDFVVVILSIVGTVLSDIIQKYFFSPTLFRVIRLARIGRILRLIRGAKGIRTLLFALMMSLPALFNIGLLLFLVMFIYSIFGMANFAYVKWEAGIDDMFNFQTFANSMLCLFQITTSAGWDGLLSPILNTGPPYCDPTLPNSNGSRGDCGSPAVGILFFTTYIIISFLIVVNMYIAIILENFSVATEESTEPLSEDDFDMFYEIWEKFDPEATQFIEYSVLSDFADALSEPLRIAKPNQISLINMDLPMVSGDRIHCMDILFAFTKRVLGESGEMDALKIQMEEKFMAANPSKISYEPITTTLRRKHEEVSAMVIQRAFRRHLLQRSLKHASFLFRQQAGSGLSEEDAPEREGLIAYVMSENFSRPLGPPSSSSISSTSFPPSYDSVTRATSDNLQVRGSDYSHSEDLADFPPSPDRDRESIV

[20] = target: Transient receptor potential cation channel subfamily A member 1 (Mus musculus) (UniProt Q8BLA8); test: In vivo induction of TRPA1 channel desensitization in capsaicin-induced wild type C57BL/6J mouse left check pain model assessed as macroscopic current desensitization at 300 uM treated 11 consecutive repeat measured after exposed to 365 nm UV light; assay type: functional, organism-based
Sequence of Transient receptor potential cation channel subfamily A member 1 (Mus musculus) (Q8BLA8 whole entry): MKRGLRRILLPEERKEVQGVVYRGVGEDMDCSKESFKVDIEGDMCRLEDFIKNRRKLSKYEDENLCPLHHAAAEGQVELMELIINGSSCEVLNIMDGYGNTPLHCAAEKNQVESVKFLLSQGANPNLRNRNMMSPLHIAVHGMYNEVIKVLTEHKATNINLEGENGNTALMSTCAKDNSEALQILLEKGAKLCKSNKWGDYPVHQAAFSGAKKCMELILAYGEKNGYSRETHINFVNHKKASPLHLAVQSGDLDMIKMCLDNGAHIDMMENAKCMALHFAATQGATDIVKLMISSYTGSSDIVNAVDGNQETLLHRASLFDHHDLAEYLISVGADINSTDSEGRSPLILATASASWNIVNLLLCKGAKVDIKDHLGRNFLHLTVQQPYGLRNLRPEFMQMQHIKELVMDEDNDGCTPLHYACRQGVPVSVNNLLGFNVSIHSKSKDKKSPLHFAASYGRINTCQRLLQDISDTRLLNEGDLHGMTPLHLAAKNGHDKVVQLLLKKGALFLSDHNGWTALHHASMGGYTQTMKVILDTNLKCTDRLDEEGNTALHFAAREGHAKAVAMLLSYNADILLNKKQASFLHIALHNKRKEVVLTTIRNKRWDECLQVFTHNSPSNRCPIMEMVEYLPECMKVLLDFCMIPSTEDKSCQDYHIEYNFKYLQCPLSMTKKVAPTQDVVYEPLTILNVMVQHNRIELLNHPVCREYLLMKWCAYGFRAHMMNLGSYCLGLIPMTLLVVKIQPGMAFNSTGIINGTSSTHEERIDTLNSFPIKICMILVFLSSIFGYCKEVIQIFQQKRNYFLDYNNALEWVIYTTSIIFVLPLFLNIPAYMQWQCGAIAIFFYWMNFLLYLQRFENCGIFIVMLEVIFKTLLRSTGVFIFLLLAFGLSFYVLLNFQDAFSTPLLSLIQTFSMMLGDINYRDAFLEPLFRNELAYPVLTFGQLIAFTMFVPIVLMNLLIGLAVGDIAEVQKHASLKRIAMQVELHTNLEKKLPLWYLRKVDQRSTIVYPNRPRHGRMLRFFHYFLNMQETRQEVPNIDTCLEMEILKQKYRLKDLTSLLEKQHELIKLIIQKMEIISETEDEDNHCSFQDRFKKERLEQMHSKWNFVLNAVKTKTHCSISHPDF

SMILES	inhibition [1]	EC50 [2]	Activity [3]	half-life at 50 µM [4]	half-life at 50 µM [5]	Activity [6]	Activity [7]	Activity [8]	Drug metabolism [9]	Drug metabolism [10]	Stability [11]	Activity [12]	Activity [13]	Activity [14]	Activity [15]	Activity [16]	Activity [17]	Activity [18]	Activity [19]	Activity [20]
Oc1cccc(/N=N/c2ccccc2)c1	Active	104 µM	inactive	2.43 min	1.65 min	inactive	Active	inactive	Metabolite_Detected	Metabolite_Detected	Stable	inactive								
C[C@H](CCC(=O)O)C[C@H](C)C[C@H](C)C(=O)/C=C(\O)[C@H](C)C[C@H](C)C/C=C/[C@@H](C)[C@@H](O)[C@@H](C)[C@@H](O)C[C@@H]1CC[C@@](C)([C@H]2CC[C@@](C)([C@@H](C)O)O2)O1							Active													
C=CCN=C=S													Active							
Nc1cccc(/N=N/c2ccccc2)c1	Active					inactive	Active	inactive	Metabolite_Notdetected		Stable									
Clc1cc(/N=N/c2ccccc2)ccn1	Active	5.55 µM		9.67 min	5.3 min	inactive	Active	inactive	Metabolite_Detected	Metabolite_Detected	Stable	Active		inactive	inactive	inactive	inactive	inactive	Not Active	Active
c1ccc(/N=N/c2ccncc2)cc1	Active																			
Oc1ccc(/N=N/c2ccccc2)cc1	Active																			
Cc1cnccc1/N=N/c1ccccc1	Active	19.2 µM			1.67 min	inactive	Active	inactive	Metabolite_Notdetected		Stable	inactive								
O=C(O)c1ccc(/N=N/c2ccccc2)cc1	Active	24.8 µM		6.55 min	1.35 min	inactive	Active	inactive	Metabolite_Detected	Metabolite_Detected	Stable	Active		inactive	inactive	inactive	inactive	inactive	Not Active	Active
